Entries after “also recorded” stand apart in the source; their conditions may differ.
What was measured:
[1] = target: T1, human brain neurotoxic esterase (Homo sapiens, UniProt Q8IY17); experiment: blocking of mepafox inhibition of neurotoxic esterase; type: biochemical; details: relative to the other compounds
T1 construct: from tissue; host or cells: human brain
T1 sequence (Q8IY17 1-1375): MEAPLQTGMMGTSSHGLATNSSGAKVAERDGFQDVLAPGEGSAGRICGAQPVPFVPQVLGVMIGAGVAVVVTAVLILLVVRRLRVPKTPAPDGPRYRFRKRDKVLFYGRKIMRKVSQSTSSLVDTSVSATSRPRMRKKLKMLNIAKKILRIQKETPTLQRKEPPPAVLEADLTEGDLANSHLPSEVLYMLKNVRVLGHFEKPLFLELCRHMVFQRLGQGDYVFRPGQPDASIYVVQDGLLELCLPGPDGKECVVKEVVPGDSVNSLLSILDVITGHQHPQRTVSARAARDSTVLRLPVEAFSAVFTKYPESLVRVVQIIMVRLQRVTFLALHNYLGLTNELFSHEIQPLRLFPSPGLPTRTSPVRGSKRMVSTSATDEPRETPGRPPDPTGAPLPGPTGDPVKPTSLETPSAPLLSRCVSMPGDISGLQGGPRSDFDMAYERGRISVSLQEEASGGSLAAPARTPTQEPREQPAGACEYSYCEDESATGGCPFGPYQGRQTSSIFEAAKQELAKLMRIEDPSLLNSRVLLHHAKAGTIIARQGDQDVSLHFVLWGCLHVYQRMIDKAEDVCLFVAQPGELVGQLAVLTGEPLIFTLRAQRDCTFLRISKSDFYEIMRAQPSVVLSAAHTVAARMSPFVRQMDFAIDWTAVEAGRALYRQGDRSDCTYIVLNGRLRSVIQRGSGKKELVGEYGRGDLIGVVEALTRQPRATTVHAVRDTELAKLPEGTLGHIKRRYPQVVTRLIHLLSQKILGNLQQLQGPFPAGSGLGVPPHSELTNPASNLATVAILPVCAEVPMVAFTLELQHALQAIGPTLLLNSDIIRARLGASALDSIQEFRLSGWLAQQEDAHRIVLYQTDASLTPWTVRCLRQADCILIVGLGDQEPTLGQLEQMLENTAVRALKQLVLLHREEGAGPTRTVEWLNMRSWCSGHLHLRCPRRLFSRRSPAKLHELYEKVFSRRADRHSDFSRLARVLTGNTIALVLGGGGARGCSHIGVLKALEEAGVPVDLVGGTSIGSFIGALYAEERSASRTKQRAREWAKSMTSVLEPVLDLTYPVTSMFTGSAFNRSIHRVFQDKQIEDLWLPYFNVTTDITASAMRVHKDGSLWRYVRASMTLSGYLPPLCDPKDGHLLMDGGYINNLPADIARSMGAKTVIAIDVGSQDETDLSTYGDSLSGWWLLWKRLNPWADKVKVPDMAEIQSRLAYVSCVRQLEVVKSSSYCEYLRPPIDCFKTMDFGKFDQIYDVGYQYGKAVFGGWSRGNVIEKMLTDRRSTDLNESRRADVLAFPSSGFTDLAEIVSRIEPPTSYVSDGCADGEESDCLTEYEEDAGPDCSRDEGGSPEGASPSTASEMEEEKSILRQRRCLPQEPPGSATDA
Source text: The data in Table III were generated by determining what concentration of the various novel compounds were needed to block the inhibition of human brain neurotoxic esterase by a high concentration of mepafox.

T. ni larvae [2] = experiment: topical treatment of T. ni larvae, time of pupation; type: in vivo, Trichoplusia ni; details: 0.1 and 0.2μ mole per application, 3 times per day, L5D1 and D2, topical
Description: (§1) T. ni larvae are treated with 1 or 2μ liters of ethanol, with TFPOS, wit o-ethyl-S-phenyl phosphoramidothiolate (EPPAT), or with 1,1,1-trifluorotetradecan-2-one (TFT) in 1×10^-1 M ethanol solutions on the dorsum of the thorax three times per day (4, 12 and 17 hr after lights on) during the first two days of the last larval stadium. The insects were held under standard rearing conditions (27° C., 14 hr light, 10 hr dark). The time of pupation was checked daily at 4 hr after lights on and the pupae were checked for successful emergence two weeks later.
(§2) Larvae were treated on the dorsum of the thorax with 1 or 2μ liters of ethanol (control) and with 1 or 2μ liters, respectively, of 10^-1 M TFT, TFPOS, DTFT or EPPAT in ethanol, 3 times per day at 4, 12 and 17 h ALO (after lights on) on L5Dl and D2. Time of pupation was checked daily at 4 h ALO, and emergence was checked 2 weeks after treatment. L5Dl larvae 4 h ALO were also treated, but only once with 1μ liter ethanol or with 1μ liter of 10-1 M TFT, TFPOS, or EPPAT in ethanol, and then were bled at 1, 8, 12, 23, 28, or 32 h after treatment. Hemolymph was collected from five larvae, mixed and frozen at -60° C. until assayed for JHE and α-NAE activity. […] Death usually occured during the larval-pupal transformation, with the control mortality at 2μ liters of ethanol being 1%, TFT at 0.2M being 6%, an TFPOS being 4%.

T. ni JHE [3] = experiment: in vivo inhibition of T. ni JHE after topical application; parameters: species or system Trichoplusia ni
Description: as §2
In another study, the in vivo inhibition of T. ni JHE following a single dose (0.1μ moles/larve) of EPPAT and TFPOS respectively was monitored. Maximum inhibition of T. ni JHE was obtained one hour after topical application for each.

T. ni JHE [4] = experiment: removal of inhibitor by dialysis (reversibility of inhibition); type: biochemical, Trichoplusia ni; details: for enzyme activity after dialysis: 48 hours after starting the dialysis
JH esterase = details: crude juvenile hormone esterase from the cabbage looper; cited from earlier work
T. ni larvae [5] = details: cited from earlier work
T. ni larvae [6] = experiment: mortality of T. ni larvae after repeated topical applications; type: in vivo, Trichoplusia ni
Description: as §1, §2

Structure (SMILES)	potency in blocking neurotoxic esterase [1]	delay of pupation versus ethanol controls (T. ni larvae [2])	persistence of in vivo inhibition (T. ni JHE [3]; compared with TFPOS and DTFT)	time of maximum inhibition of T. ni JHE after topical application (T. ni JHE [3]; single dose 0.1μ moles/larve)	enzyme activity after dialysis (T. ni JHE [4])	type of inhibition of T. ni JHE (T. ni JHE [4]; dialysis)	in vitro inhibition of juvenile hormone esterase (literature) (JH esterase)	in vivo activity, topical application to cabbage looper (literature) (T. ni larvae [5])	mortality at 0.2 µmol/application (T. ni larvae [6]; Trichoplusia, topical, repeated applications of 2μ liters (0.2 moles/application), Example VIII) [%]	mortality (T. ni larvae [6]; repeated 1μ liter applications of 1×10^-1 M solution)	t0.5 of reactivation (T. ni JHE [4]; dialysis)
O=C(CSc1ccc(Oc2ccc(SCC(=O)C(F)(F)F)cc2)cc1)C(F)(F)F [Compound 35]	most potent to date										
CCOP(N)(=O)Sc1ccccc1 (stereo not shown) [EPPAT, O-ethyl-S-phenyl phosphoramidothiolate, reference compound]		delayed preparation at both doses; also recorded: pupation was delayed with respect to the controls in a dose-dependent manner	more persistent	one	almost complete loss of enzyme activity	irreversible inhibitor	potent in vitro inhibition of juvenile hormone esterase	disrupt development of the cabbage looper			
CCCCCCCCCCCCC(=O)C(F)(F)F [TFT, 1,1,1-trifluorotetradecan-2-one, reference compound]		neither dose of TFT resulted in a delay in pupation; also recorded: no difference in the time of pupation; also recorded: no such in vivo effect			restored gradually to the same activity as in the uninhibited enzyme	reversible inhibitors	relatively greater juvenile hormone esterase activity in vitro than EPPAT	lack of pronounced in vivo activity	6	No mortality	more than 20 hours

— US4562292A, “Trifluoromethylketone sulfides and reversible enzyme inhibition therewith” (priority 1983, dated 1985)
